Results published in PubChem BioAssay (NCI).
Values joined by “and” are separate entries in the source; they are usually repeats but may differ in a detail not shown here. Equal entries are not always repeated.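 Assay format: 96-well plates, 48-hour exposure. At the GI50, growth is halved. TGI denotes the concentration required for complete inhibition of growth.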

What was measured:
Experiment in all cases: DTP human tumour cell line panel, 48 h
A498 renal = system: A498 renal
DU-145 prostate = system: DU-145 prostate
HCT-15 colon = system: HCT-15 colon
HT29 colon = system: HT29 colon
KM12 colon = system: KM12 colon
NCI-H226 lung = system: NCI-H226 lung
NCI-H460 lung = system: NCI-H460 lung
RPMI-8226 leukemia = system: RPMI-8226 leukemia
SK-MEL-5 melanoma = system: SK-MEL-5 melanoma
SR leukemia = system: SR leukemia

Row | SMILES | TGI (A498 renal) [µM] | TGI (DU-145 prostate) [µM] | TGI (HCT-15 colon) [µM] | TGI (HT29 colon) [µM] | TGI (KM12 colon) [µM] | TGI (NCI-H226 lung) [µM] | TGI (NCI-H460 lung) | TGI (RPMI-8226 leukemia) [µM] | TGI (SK-MEL-5 melanoma) [µM] | TGI (SR leukemia) [µM] | GI50 (A498 renal) [µM] | GI50 (DU-145 prostate) [µM] | GI50 (HT29 colon) [µM] | GI50 (KM12 colon) [µM] | GI50 (NCI-H460 lung) [µM] | GI50 (SR leukemia) [µM] | GI50 (HCT-15 colon) [µM] | GI50 (NCI-H226 lung) [µM] | GI50 (RPMI-8226 leukemia) [µM] | GI50 (SK-MEL-5 melanoma) [µM]
1 | NC(=O)CCSC(CC(=O)c1ccc(Cl)cc1)c1ccc(Cl)cc1 (configuration not stated) | 97.8 | 85.4 | 31.5 | > 100 | 19.6 | > 100 | > 100 µM | 5.71 | 42.9 | 22.9 | – | – | – | – | – | – | – | – | – | –
2 | Cn1c(=O)ccc2c(=O)c3ccccc3oc21 | > 100 | > 100 | > 100 | > 100 | > 100 | > 100 | > 100 µM | – | > 100 | > 100 | – | – | – | – | – | – | – | – | – | –
3 | O=S(=O)(O)c1ccc2c(N=Nc3ccccc3)c(O)ccc2c1 | > 100 | > 100 | > 100 | > 100 | > 100 | > 100 | > 100 µM | > 100 | > 100 | > 100 | – | – | – | – | – | – | – | – | – | –
4 | COc1cc(/C=C2\N=C(c3ccccc3)N(c3nc4ccc(Sc5ccccc5)cc4[nH]3)C2=O)cc(OC)c1OC | 71.8 | 75.8 | > 100 | 48.4 | 58.8 | – | 51.4 µM | 56.4 | 26.3 | – | – | – | – | – | – | – | – | – | – | –
5 | Cn1c2cn[nH]c(=O)c2c2ccc3ccccc3c21 | 80 | > 100 | > 100 | > 100 | > 100 | > 100 | > 100 µM | > 100 | > 100 | > 100 | – | – | – | – | – | – | – | – | – | –
6 | O=C(O)CCCN=C(C1=C(O)C(=O)N(c2ccccc2)C1=O)c1ccccc1 | – | > 100 | > 100 | > 100 | > 100 | > 100 | > 100 µM | > 100 | > 100 | 64.9 | – | – | – | – | – | – | – | – | – | –
7 | O=c1[nH]c2cc([N+](=O)[O-])c(N/N=C/c3ccc(Cl)cc3Cl)c([N+](=O)[O-])c2[nH]1 | 48.7 | > 100 | > 100 | > 100 | 25.8 | > 100 | > 100 µM | > 100 | > 100 | – | – | – | – | – | – | – | – | – | – | –
8 | N=C(N)c1ccc(N=Nc2c(O)ccc3cc4c(N=Nc5ccc(C(=N)N)cc5)c(O)ccc4cc23)cc1 | – | > 100 | > 100 | > 100 | > 100 | > 100 | > 100 µM | > 100 | > 100 | > 100 | – | – | – | – | – | – | – | – | – | –
9 | C=C1c2nc3ccccc3n2C=C(c2ccc(Cl)cc2)N1c1ccc(OCCN2CCCCC2)cc1 | > 100 | > 100 | > 45 | > 100 | > 100 | > 100 | 45 µM and > 100 µM | 45 | > 45 | – | > 100 | > 100 | > 100 | > 100 | 1.2 | 0.0439 | – | – | – | –
10 | Cc1ccc(C(=O)Nc2ncn(C3CC(O)C(CO)O3)c(=O)n2)cc1 (configuration not stated) | > 100 | – | > 100 | > 100 | > 100 | > 100 | > 100 µM | > 100 | > 100 | – | – | – | – | – | – | – | – | – | – | –
11 | N#Cc1c(-c2ccc(Cl)cc2)c2c([nH]c1=O)-c1cc([N+](=O)[O-])ccc1CCC2 | 37.7 | > 100 | 47.6 | 75.5 | 55.5 | 44.2 | 42.5 µM | > 100 | 40.7 | > 100 | – | – | – | – | – | – | – | – | – | –
12 | O=C([CH-]C(=O)c1ccccc1)c1ccccc1.O=C([CH-]C(=O)c1ccccc1)c1ccccc1.O=C([CH-]C(=O)c1ccccc1)c1ccccc1.[Cl-].[Hf+4] | 63 | – | > 100 | > 100 | > 100 | 54 | 67.7 µM | 82.1 | 31.5 | – | 18.6 | – | 33.9 | 21.1 | 13.1 | – | 12.5 | 13 | 13.5 | 11.1
13 | C/C(=C\C(=N\NC(=N)N)c1ccccc1)c1ccccc1 | – | 9.49 | 14.7 | 3.44 | 3.67 | 13 | 11.1 µM | 8.41 | 0.76 | 6.59 | – | – | – | – | – | – | – | – | – | –
14 | O=CN1CCC23CC(O)CCC2C1Cc1cc(Oc2nnnn2-c2ccccc2)cc(O)c13 (configuration not stated) | > 100 | > 100 | > 100 | > 100 | > 100 | > 100 | > 100 µM | > 100 | > 100 | > 100 | – | – | – | – | – | – | – | – | – | –
15 | CCN(CCO)CCNc1ccc(C)c2sc3ccccc3c(=O)c12 | 31.2 | 21.8 | 10.8 | 6.31 | 11.2 | 14 | 3.88 µM | 20.3 | 7.66 | > 22.4 | – | – | – | – | – | – | – | – | – | –
16 | C=C1CC2C3C=C(C)C4=CC(=O)CC[C@]4(C)C3CC[C@]2(C)[C@@]1(OC(C)=O)C(C)=O (some centres not stated) | > 100 | > 100 | – | – | – | – | > 100 µM | 5.6 | – | > 100 | > 100 | > 100 | – | – | 3.69 | 3.19 | – | – | 1.25 | –
